Measurements from US5753681A, “Treatment and prophylaxis of pancreatitis” (Sankyo Company, Limited, priority 1996, dated 1998).

Assays:
[1] = Suppression of the decrease in the pancreatic weight in a model of spontaneous chronic pancreatitis; format: in vivo, male WBN/Kob rats; settings: in feed: pioglitazone 0.05% (25 mg/kg/day), BRL-49653 0.005% (2.5), Compound A 0.005% (3.0); three months; normal 1152 ± 43, control 680 ± 26; ***p < 0.001 (pioglitazone, BRL-49653), **p < 0.01 (Compound A)
Source text: The test animals were male WBN/Kob rats, which are commonly used as models of spontaneous chronic pancreatitis and suffer pancreatic weight loss and dysfunction of the exocrine pancreatic tissue due to degeneration and necrosis of the pancreatic parenchyma and its replacement by connective tissue [Tsuchitani et al., Laboratory Animals, 19(3), 200-207, (1985)]. Each group of test animals contained 4 animals, and the animals were used for the experiment when they had reached 12 weeks old. The animals were fed with powdered feed F2 mixed with 0.2% of troglitazone for three months. This group is hereinafter referred to as "the treated group". The average dose of the compound during this period was 140 mg/kg/day. Meanwhile, another four rats (control group) were fed with the powdered feed F2 only. After the rats had been fed with the feeds for three months, the pancreas of each animal was totally enucleated and its weight was measured.
(§1) The procedure described in Example 2 was repeated, except that the test compound was pioglitazone ("the pioglitazone group"), BRL-49653 ("the BRL-49653 group"), or Compound A ("the Compound A group").

[2] = Histopathology of pancreatic tissue of Example 3: total cross-sectional area and cicatrized area; format: in vivo, male WBN/Kob rats; settings: doses of Example 3
Protocol: The measurement of the cicatrized area may also be carried out by conventional procedures. More specifically, male WBN/Kob rats are used as models of spontaneous chronic pancreatitis and are fed with a powdered feed admixed with a test compound. The pancreas of each animal is then totally enucleated. Its weight is measured and also the cicatrized area is measured relative to the total cross-sectional area of the pancreas tissue sliced by an image analyser.
as §1
In order to evaluate the results of Example 2 histopathologically, each pancreas used for weight measurement in Example 2 was fixed in 10% neutral formalin. It was then divided into a spleen side half and a duodenum side half, and each half was sliced at 3 mm intervals to provide cross-sectional tissue pieces. All of these tissue pieces were subjected to paraffin sectioning by conventional procedures and then to hematoxylin-eosin staining and Masson's trichrome staining to prepare two tissue preparations, which were used for histopathological examination. The total cross-sectional area of the pancreatic tissue piece on each preparation was measured using an image analyser (SPICCAII, manufactured by Olympus Optical Co., Ltd.).
In addition, the surface area of the zone which had undergone degeneration and necrosis and in which the exocrine pancreatic tissue was replaced with connective tissue (the cicatrized area) was measured using an image analyser.
In order to evaluate the results of Example 3 histopathologically, the total cross-sectional area and cicatrized area of each pancreas whose weight was measured in Example 3 was measured by the procedure described in Example 4.

[3] = Acute toxicity; format: in vivo, ddY mice (male); settings: oral dose of 300 mg/kg or more
Protocol: Acute toxicity was assayed by conventional procedures. […] At the end of this time, the animals were all alive. When the acute toxicities of Compounds No. 2, 3, 4 and 10 were measured in the same manner, the mice were all alive after an oral dose of 300 mg/kg or more.

[4] = duodenum side, control 5.52 ± 0.86, **p < 0.01 all three
[5] = duodenum side, control 90.3 ± 14.9
[6] = spleen side pancreatic half, control 8.11 ± 0.76, *p < 0.05 pioglitazone, **p < 0.01 Compound A
[7] = spleen side pancreatic half, control 99.3 ± 9.8, **p < 0.01 pioglitazone, *p < 0.05 BRL-49653

Structure (SMILES): CN(CCOc1ccc(CC2SC(=O)NC2=O)cc1)c1ccccn1 (stereo not shown) [BRL-49653, 5-[4-{2-[N-Methyl-N-(pyridin-2-yl)amino]ethoxy}benzyl]-thiazolidine-2,4-dione]
- Pancreatic weight [1]: 976 ± 51 mg
- Cicatrized area in the exocrine pancreatic tissue [2, 4]: 1.21 ± 0.40 mm^2
- Total cross-sectional area of pancreatic tissue piece [2, 5]: 100.9 ± 2.1 mm^2
- Cicatrized area in the exocrine pancreatic tissue [2, 6]: 5.40 ± 1.35 mm^2
- Total cross-sectional area of pancreatic tissue piece [2, 7]: 147.2 ± 14.2 mm^2

Structure (SMILES): CC(=NOCCOc1ccc(CC2SC(=O)NC2=O)cc1)c1ccc(-c2ccccn2)cc1 (stereo not shown) [Compound A, 5-(4-{2-[1-(4-2'-pyridylphenyl)ethylideneaminooxy]ethoxy}-benzyl)thiazolidine-2,4-dione]
- Pancreatic weight [1]: 853 ± 44 mg
- Cicatrized area in the exocrine pancreatic tissue [2, 4]: 1.17 ± 0.15 mm^2
- Total cross-sectional area of pancreatic tissue piece [2, 5]: 90.3 ± 10.2 mm^2
- Cicatrized area in the exocrine pancreatic tissue [2, 6]: 2.62 ± 0.51 mm^2
- Total cross-sectional area of pancreatic tissue piece [2, 7]: 100.8 ± 12.5 mm^2

Structure (SMILES): CCc1ccc(CCOc2ccc(CC3SC(=O)NC3=O)cc2)nc1 (stereo not shown) [Pioglitazone, 5-{4-[2-(5-Ethylpyridin-2-yl)ethoxy]benzyl}thiazolidine-2,4-dione]
- Pancreatic weight [1]: 982 ± 52 mg
- Cicatrized area in the exocrine pancreatic tissue [2, 4]: 1.12 ± 0.26 mm^2
- Total cross-sectional area of pancreatic tissue piece [2, 5]: 122.0 ± 9.8 mm^2
- Cicatrized area in the exocrine pancreatic tissue [2, 6]: 4.98 ± 1.03 mm^2
- Total cross-sectional area of pancreatic tissue piece [2, 7]: 157.8 ± 16.1 mm^2

Structure (SMILES): Cc1c(C)c2c(c(C)c1O)CCC(COc1ccc(CC3SC(=O)NC3=O)cc1)O2 (stereo not shown) [compound 2]
- Survival (acute toxicity) [3]: all alive

Structure (SMILES): CC1(COc2ccc(CC3SC(=O)NC3=O)cc2)CCc2cc(O)ccc2O1 (stereo not shown) [compound 3]
- Survival (acute toxicity) [3]: all alive

Structure (SMILES): CC1(COc2ccc(CC3SC(=O)NC3=O)cc2)CCc2cc(O)c(C(C)(C)C)cc2O1 (stereo not shown) [compound 4, 5-[4-(6-Hydroxy-2-methyl-7-t-butylchroman-2-ylmethoxy)benzyl]thiazolidine-2,4-dione]
- Survival (acute toxicity) [3]: all alive

Structure (SMILES): CCOC(=O)Oc1c(C)c(C)c2c(c1C)CCC(C)(COc1ccc(CC3SC(=O)NC3=O)cc1)O2 (stereo not shown) [compound 10, 5-[4-(6-Ethoxycarbonyloxy-2,5,7,8-tetramethylchroman-2-ylmethoxy)benzyl]-thiazolidine-2,4-dione]
- Survival (acute toxicity) [3]: all alive
